Measurements published in patent US20230357179A1, “RAF KINASE INHIBITORS AND METHODS OF USE THEREOF” (Deciphera Pharmaceuticals, LLC, priority 2021, published 2023).

Tests used:
WM3928 cells = assay: WM3928 cell proliferation assay (2), resazurin, 384-well; type: cell-based; details: inhibition of cell proliferation, 67-72 hours
Procedure: WM3928 Cell Proliferation Assay (2)
WM3928 cells (#WM3928-01-0001) are obtained from Rockland Immunochemicals Inc (Gilbertsville, PA). Briefly, cells were grown in MCDB 153 medium (Sigma, #M7403, St. Louis, MO) supplemented with 20% Leibovitz's L-15 (ThermoFisher #11415-064, Waltham, MA), 2% heat inactivated fetal bovine serum (ThermoFisher, #A3840001, Waltham, MA), 5 μg/mL Insulin (Bovine Pancreas) (Sigma, #I0516, St. Louis, MO), 1.68 mM Calcium Chloride (Sigma, #C-34006, St. Louis, MO) and 1% Penicillin/Streptomycin/L-Glutamine (ThermoFisher #10378016, Waltham, MA) at 37° C., 5% CO2, and 95% humidity. Cells are expanded until reaching 70-95% confluency at which point they are sub-cultured or harvested for assay use. Using the Beckman Coulter Echo 650, a serial dilution of test compound is dispensed into a 384-well black clear bottom plate in triplicate. Seven hundred fifty cells are added per well in 50 μL complete growth medium in the 384-well plate. Plates are incubated for 67-72 hours at 37° C., 5% CO2, and 95% humidity. At the end of the incubation, 10 μL of a 440 μM solution of resazurin (Sigma, #199303, St. Louis, MO) in PBS is added to each well of the plate and plates are incubated for an additional 3-6 hours at 37° C., 5% CO2, and 95% humidity. Plates are read on a Synergy2 or equivalent reader (Biotek, Winooski VT) using an excitation of 540 nm and an emission of 600 nm. Data is analyzed using Prism software (GraphPad, San Diego, CA) to calculate IC50 values.

B-Raf (V600E) kinase = target: T1, B-Raf (V600E) kinase (Homo sapiens, UniProt P15056, V600E); assay: Biochemical assay for B-Raf (V600E).1 (coupled pyruvate kinase/lactate dehydrogenase); details: read-out: BRAF V600E.1 IC50
T1 construct: B-Raf (V600E) residues 416-766 with a; GST (N); purchased SignalChem
T1 sequence (P15056 416-766 V600E): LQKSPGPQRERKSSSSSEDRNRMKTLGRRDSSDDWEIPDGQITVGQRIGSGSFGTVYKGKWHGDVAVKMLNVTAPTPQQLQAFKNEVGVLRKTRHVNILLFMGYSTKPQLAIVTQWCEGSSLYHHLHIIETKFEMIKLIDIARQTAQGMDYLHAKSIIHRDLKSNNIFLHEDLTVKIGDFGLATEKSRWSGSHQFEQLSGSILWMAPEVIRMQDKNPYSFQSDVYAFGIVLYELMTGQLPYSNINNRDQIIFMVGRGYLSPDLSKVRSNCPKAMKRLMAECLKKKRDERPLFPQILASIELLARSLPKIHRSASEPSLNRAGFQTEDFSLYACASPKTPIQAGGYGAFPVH
Summary of the method: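 0.03 nM B-Raf(V600E) phosphorylating 30.1 nM MEK at 1 mM ATP, pH 7.5, coupled to PK/LDH, with NADH oxidation followed at 340 nm for 6 h at 30 °C. Rates taken from the 3-4 h window. IC50 from a four-parameter fit of percent inhibition.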

H2405 cells = assay: H2405 cell proliferation assay (2), resazurin, 384-well; type: cell-based; details: Homo sapiens, NCI-H2405, inhibition of cell proliferation, 67-72 h
Procedure: H2405 Cell Proliferation Assay (2)
H2405 cells (catalog #CRL-5994) are obtained from the American Type Culture Collect (ATTC, Manassas, VA). Briefly, cells were grown in RPMI 1640 supplemented with 5% characterized fetal bovine serum (Invitrogen, Carlsbad, CA) and 1% Penicillin/Streptomycin/L-Glutamine at 37° C., 5% CO2, and 95% humidity. Cells are expanded until reaching 70-95% confluency at which point they are sub-cultured or harvested for assay use. A serial dilution of test compound is dispensed into a 384-well black clear bottom plate in triplicate. Seven hundred fifty cells are added per well in 50 μL complete growth medium in the 384-well plate. Plates are incubated for 67-72 h at 37° C., 5% CO2, and 95% humidity. At the end of the incubation, 10 μL of a 440 μM solution of resazurin (Sigma, St. Louis, MO) in PBS is added to each well of the plate and plates are incubated for an additional 5-6 h at 37° C., 5% CO2, and 95% humidity. Plates are read on a Synergy2 or equivalent reader (Biotek, Winooski VT) using an excitation of 540 nm and an emission of 600 nm. Data is analyzed using Prism software (GraphPad, San Diego, CA) to calculate IC50 values

WM3629 cells = assay: WM3629 cell proliferation assay (1), resazurin, 96-well; type: cell-based; details: inhibition of cell proliferation
Procedure: WM3629 Cell Proliferation Assay (1)
WM3629 cells (#WM3629-01-0001) are obtained from Rockland Immunochemicals Inc (Gilbertsville, PA). Briefly, cells were grown in MCDB 153 medium (Sigma, #M7403, St. Louis, MO) supplemented with 20% Leibovitz's L-15 (ThermoFisher #11415-064, Waltham, MA), 2% heat inactivated fetal bovine serum (ThermoFisher, #A3840001, Waltham, MA), 5 μg/mL Insulin (Bovine Pancreas) (Sigma, #I0516, St. Louis, MO), 1.68 mM Calcium Chloride (Sigma, #C-34006, St. Louis, MO) and 1% Penicillin/Streptomycin/L-Glutamine (ThermoFisher #10378016, Waltham, MA) at 37° C., 5% CO2, and 95% humidity. Cells are expanded until reaching 70-95% confluency at which point they are subcultured or harvested for assay use. A serial dilution of test compound is dispensed into a 96-well black clear bottom plate in triplicate. Four thousand five hundred cells are added per well in 200 μL complete growth medium in the 96-well plate. Plates are incubated for 67-72 hours at 37° C., 5% CO2, and 95% humidity. At the end of the incubation, 40 μL of a 440 μM solution of resazurin (Sigma, #199303, St. Louis, MO) in PBS is added to each well of the plate and plates are incubated for an additional 6-7 hours at 37° C., 5% CO2, and 95% humidity. Plates are read on a Synergy2 or equivalent reader (Biotek, Winooski VT) using an excitation of 540 nm and an emission of 600 nm. Data is analyzed using Prism software (GraphPad, San Diego, CA) to calculate IC50 values.

Structure (SMILES) | IC50 (B-Raf (V600E) kinase) [nM] | IC50 (H2405 cells) [nM] | IC50 (WM3928 cells) [nM] | IC50 (WM3629 cells) [nM]
CNC(=O)c1cc(-c2cncc(-c3cc(NC(=O)N4CC[C@H](C(C)C)C4)ccc3C)c2)ncn1 [Example 226] |  |  | 100 to 500 | 
COC(=O)Nc1cc(-c2cccc(-c3cc(NC(=O)NCCC(C)(C)OC)c(F)cc3C)c2)ccn1 [Example 85] | ≤ 100 |  |  | 
Cc1ccc(NC(=O)N2CC[C@H](C)C2)cc1-c1cncc(-c2cc(NC(=O)C3CC3)ncn2)c1 [Example 227] |  | 1000 to 10000 | 100 to 500 | 
CNC(=O)c1cc(-c2cc(-c3cc(NC(=O)N4CC[C@H](C(C)C)C4)ccc3C)ccn2)ccn1 [Example 225] |  |  | 100 to 500 | ≤ 100
CNC(=O)c1cc(-c2cncc(-c3cc(NC(=O)N4CC[C@H](C(C)C)C4)ccc3C)c2)ccn1 [Example 229] |  | 500 to 1000 | 100 to 500 | 
CNC(=O)c1cc(-c2cncc(-c3cc(NC(=O)N4CC[C@H](C(F)(F)F)C4)ccc3C)c2)ncn1 [Example 220] |  |  | 500 to 1000 | 
CNC(=O)c1cc(-c2cncc(-c3cc(NC(=O)N4CC[C@H](C(F)(F)F)C4)ccc3C)c2)ccn1 [Example 228] |  | 100 to 500 | 100 to 500 | 
CNC(=O)c1cc(-c2cc(-c3cc(NC(=O)N4CC[C@H](C(F)(F)F)C4)ccc3C)ccn2)ccn1 [Example 215] |  | 100 to 500 |  | ≤ 100
COC(=O)Nc1cc(-c2cncc(-c3cc(NC(=O)N4CC[C@H](C(F)(F)F)C4)ccc3C)c2)ncn1 [Example 224] |  | ≤ 100 |  | ≤ 100

Now from value to compound, other results behind:

IC50 (B-Raf (V600E) kinase) [nM] | IC50 (H2405 cells) [nM] | Structure (SMILES) | IC50 (WM3928 cells) [nM] | IC50 (WM3629 cells) [nM]
> 1000 |  | Cc1cc(F)c(NC(=O)NCC[C@@H]2CCO2)cc1-c1cc(OCCO)nc(-c2ccnc3[nH]ncc23)c1 [Example 89] |  | 
≤ 100 |  | Cc1cc(F)c(NC(=O)N[C@@H]2CC[C@H](F)C2)cc1-c1cc(OCCO)nc(-c2ccnc3[nH]ncc23)c1 [Example 88] |  | 
≤ 100 |  | Cc1cc(F)c(NC(=O)N2CCC(C)(C#N)CC2)cc1-c1cc(OCCO)nc(-c2ccnc3[nH]ncc23)c1 [Example 92] |  | 
≤ 100 |  | Cc1cc(F)c(NC(=O)NCCC2(C)CC2)cc1-c1cc(OCCO)nc(-c2ccnc3[nH]ncc23)c1 [Example 87] |  | 
≤ 100 |  | COC(C)(C)CCNC(=O)Nc1cc(-c2cc(OCCO)nc(-c3ccnc4[nH]ccc34)c2)c(C)cc1F [Example 90] |  | 
≤ 100 |  | COC(C)(C)CCNC(=O)Nc1cc(-c2cc(OCCO)nc(-c3ccnc4[nH]ncc34)c2)c(C)cc1F [Example 91] |  | 
